In ChEMBL document CHEMBL1201862, “PubChem BioAssay data set” (2004):
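Growth conditions: 96-well plates. Treatment: test compound, 48 hours, 5 concentrations. Analysis: linear interpolation between bracketing concentrations; unreached endpoints set to highest concentration. GI50 = concentration required for 50% inhibition of growth.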 Activity calls are given as the source filed them. Cut-off read from the data, not from the text of the source: active = GI50 up to about 1.1 µM and inactive = higher.

What was measured:
Experiment in all cases: NCI anticancer screen, dose series, 48 h
[1] = tested on: 786-0
[2] = tested on: A498
[3] = tested on: A549
[4] = tested on: ACHN
[5] = tested on: BT-549
[6] = tested on: CAKI-1
[7] = tested on: CCRF-CEM
[8] = tested on: COLO 205
[9] = tested on: DU-145
[10] = tested on: EKVX
[11] = tested on: HCC 2998
[12] = tested on: HCT-116
[13] = tested on: HCT-15
[14] = tested on: HL-60
[15] = tested on: HOP-62
[16] = tested on: HOP-92
[17] = tested on: HT-29
[18] = tested on: Hs-578T
[19] = tested on: IGROV-1
[20] = tested on: K562
[21] = tested on: KM12
[22] = tested on: LOX IMVI
[23] = tested on: M14
[24] = tested on: MCF7
[25] = tested on: MDA-MB-231
[26] = tested on: MDA-MB-435
[27] = tested on: MDA-N
[28] = tested on: MOLT-4
[29] = tested on: Malme-3M
[30] = tested on: NCI-H23
[31] = tested on: NCI-H460
[32] = tested on: NCI-H522
[33] = tested on: NCI/ADR-RES
[34] = tested on: OVCAR-3
[35] = tested on: OVCAR-4
[36] = tested on: OVCAR-5
[37] = tested on: OVCAR-8
[38] = tested on: PC-3
[39] = tested on: RXF 393
[40] = tested on: SF-268
[41] = tested on: SF-295
[42] = tested on: SF-539
[43] = tested on: SK-MEL-28
[44] = tested on: SK-MEL-2
[45] = tested on: SK-MEL-5
[46] = tested on: SK-OV-3
[47] = tested on: SN12C
[48] = tested on: SNB-19
[49] = tested on: SNB-75
[50] = tested on: SR
[51] = tested on: SW-620
[52] = tested on: T47D
[53] = tested on: TK-10
[54] = tested on: U-251
[55] = tested on: UACC-257
[56] = tested on: UACC-62
[57] = tested on: UO-31
[58] = tested on: NCI-H226

CC(C)[Si](OC1=CCC[C@H]2NC(=O)[C@@H](Cc3ccccc3)[C@@]12C)(C(C)C)C(C)C
GI50 [1]: 3.94 µM (inactive)
GI50 [2]: 5.79 µM (inactive)
GI50 [3]: 2.98 µM (inactive)
GI50 [4]: 1.89 µM (inactive)
GI50 [5]: 10.8 µM (inactive)
GI50 [6]: 3.85 µM (inactive)
GI50 [7]: 2.85 µM (inactive)
GI50 [8]: 2.33 µM (inactive)
GI50 [9]: 10.2 µM (inactive)
GI50 [10]: 3.74 µM (inactive)
GI50 [11]: 2.18 µM (inactive)
GI50 [12]: 3.6 µM (inactive)
GI50 [13]: 4.09 µM
GI50 [14]: 2.86 µM (inactive)
GI50 [15]: 11.9 µM (inactive)
GI50 [16]: 2.32 µM (inactive)
GI50 [17]: 3.43 µM (inactive)
GI50 [18]: 4.67 µM (inactive)
GI50 [19]: 10.9 µM (inactive)
GI50 [20]: 3.2 µM (inactive)
GI50 [21]: 3.84 µM (inactive)
GI50 [22]: 3.03 µM (inactive)
GI50 [23]: 11.2 µM (inactive)
GI50 [24]: 3.55 µM (inactive)
GI50 [25]: 12.6 µM (inactive)
GI50 [26]: 4.04 µM (inactive)
GI50 [27]: 3.95 µM (inactive)
GI50 [28]: 3.89 µM (inactive)
GI50 [29]: 12.8 µM (inactive)
GI50 [30]: 4.98 µM (inactive)
GI50 [31]: 3.52 µM (inactive)
GI50 [32]: 3.46 µM (inactive)
GI50 [33]: 6.49 µM (inactive)
GI50 [34]: 5.79 µM (inactive)
GI50 [35]: 5.25 µM (inactive)
GI50 [36]: 9.44 µM (inactive)
GI50 [37]: 11.4 µM (inactive)
GI50 [38]: 3.37 µM (inactive)
GI50 [39]: 4.16 µM (inactive)
GI50 [40]: 12.1 µM (inactive)
GI50 [41]: 4.85 µM (inactive)
GI50 [42]: 5.74 µM (inactive)
GI50 [43]: 4.11 µM (inactive)
GI50 [44]: 14.2 µM (inactive)
GI50 [45]: 3.37 µM (inactive)
GI50 [46]: 5.93 µM (inactive)
GI50 [47]: 3.23 µM (inactive)
GI50 [48]: 10 µM (inactive)
GI50 [49]: 15.4 µM (inactive)
GI50 [50]: 2.62 µM (inactive)
GI50 [51]: 2.72 µM (inactive)
GI50 [52]: 2.79 µM (inactive)
GI50 [53]: 9.98 µM (inactive)
GI50 [54]: 3.62 µM (inactive)
GI50 [55]: 4.54 µM (inactive)
GI50 [56]: 8.95 µM (inactive)
GI50 [57]: 10.1 µM (inactive)

CC(=O)c1ccc(/N=N/N2CCCC2)cc1
GI50 [1]: > 100 µM (inactive)
GI50 [2]: 15.9 µM (inactive)
GI50 [4]: > 100 µM (inactive)
GI50 [5]: > 100 µM (inactive)
GI50 [6]: > 100 µM (inactive)
GI50 [7]: > 100 µM (inactive)
GI50 [8]: > 100 µM (inactive)
GI50 [9]: > 100 µM (inactive)
GI50 [10]: > 100 µM (inactive)
GI50 [11]: > 100 µM (inactive)
GI50 [12]: > 100 µM (inactive)
GI50 [13]: > 100 µM
GI50 [14]: 29.5 µM (inactive)
GI50 [15]: > 100 µM (inactive)
GI50 [16]: > 100 µM (inactive)
GI50 [18]: > 100 µM (inactive)
GI50 [19]: > 100 µM (inactive)
GI50 [20]: > 100 µM (inactive)
GI50 [21]: > 100 µM (inactive)
GI50 [22]: > 100 µM (inactive)
GI50 [23]: > 100 µM (inactive)
GI50 [24]: > 100 µM (inactive)
GI50 [25]: > 100 µM (inactive)
GI50 [26]: > 100 µM (inactive)
GI50 [27]: > 100 µM (inactive)
GI50 [28]: > 100 µM (inactive)
GI50 [58]: > 100 µM (inactive)
GI50 [30]: > 100 µM (inactive)
GI50 [31]: > 100 µM (inactive)
GI50 [32]: > 100 µM (inactive)
GI50 [33]: > 100 µM (inactive)
GI50 [34]: > 100 µM (inactive)
GI50 [35]: > 100 µM (inactive)
GI50 [36]: > 100 µM (inactive)
GI50 [37]: > 100 µM (inactive)
GI50 [38]: > 100 µM (inactive)
GI50 [39]: > 100 µM (inactive)
GI50 [40]: > 100 µM (inactive)
GI50 [41]: > 100 µM (inactive)
GI50 [42]: > 100 µM (inactive)
GI50 [44]: > 100 µM (inactive)
GI50 [45]: > 100 µM (inactive)
GI50 [46]: > 100 µM (inactive)
GI50 [47]: > 100 µM (inactive)
GI50 [48]: > 100 µM (inactive)
GI50 [49]: > 100 µM (inactive)
GI50 [50]: > 100 µM (inactive)
GI50 [51]: > 100 µM (inactive)
GI50 [52]: > 100 µM (inactive)
GI50 [53]: > 100 µM (inactive)
GI50 [54]: > 100 µM (inactive)
GI50 [55]: > 100 µM (inactive)
GI50 [56]: > 100 µM (inactive)
GI50 [57]: > 100 µM (inactive)

CCN(CC)c1nc(NC2CCCCC2)c2nc(N(CC)CC)nc(NC3CCCCC3)c2n1
GI50 [1]: > 100 µM (inactive)
GI50 [2]: > 100 µM (inactive)
GI50 [3]: > 100 µM (inactive)
GI50 [4]: > 100 µM (inactive)
GI50 [5]: > 100 µM (inactive)
GI50 [7]: > 100 µM (inactive)
GI50 [9]: > 100 µM (inactive)
GI50 [10]: > 100 µM (inactive)
GI50 [11]: > 100 µM (inactive)
GI50 [12]: > 100 µM (inactive)
GI50 [13]: > 100 µM
GI50 [14]: > 100 µM (inactive)
GI50 [15]: 73.1 µM (inactive)
GI50 [16]: 38.7 µM (inactive)
GI50 [17]: > 100 µM (inactive)
GI50 [18]: > 100 µM (inactive)
GI50 [19]: > 100 µM (inactive)
GI50 [20]: > 100 µM (inactive)
GI50 [21]: > 100 µM (inactive)
GI50 [23]: > 100 µM (inactive)
GI50 [24]: > 100 µM (inactive)
GI50 [25]: 88.1 µM (inactive)
GI50 [26]: > 100 µM (inactive)
GI50 [27]: > 100 µM (inactive)
GI50 [28]: > 100 µM (inactive)
GI50 [29]: > 100 µM (inactive)
GI50 [58]: > 100 µM (inactive)
GI50 [30]: > 100 µM (inactive)
GI50 [31]: > 100 µM (inactive)
GI50 [33]: > 100 µM (inactive)
GI50 [34]: > 100 µM (inactive)
GI50 [36]: > 100 µM (inactive)
GI50 [37]: > 100 µM (inactive)
GI50 [38]: > 100 µM (inactive)
GI50 [39]: 33.3 µM (inactive)
GI50 [40]: > 100 µM (inactive)
GI50 [41]: > 100 µM (inactive)
GI50 [42]: 29.5 µM (inactive)
GI50 [43]: > 100 µM (inactive)
GI50 [45]: > 100 µM (inactive)
GI50 [46]: > 100 µM (inactive)
GI50 [47]: > 100 µM (inactive)
GI50 [48]: > 100 µM (inactive)
GI50 [50]: > 100 µM (inactive)
GI50 [51]: > 100 µM (inactive)
GI50 [52]: > 100 µM (inactive)
GI50 [53]: > 100 µM (inactive)
GI50 [54]: > 100 µM (inactive)
GI50 [56]: > 100 µM (inactive)
